Measured values taken from publication PMC10702309 (ACS Omega, 2023).
“Also recorded” adds a separate entry of the source. Read-outs that look alike come from different tables or passages of the source.

Columns and labels:
jack bean urease [1] = biological target: T1, jack bean urease (Canavalia ensiformis, UniProt P07374); test: Antiurease assay; type: biochemical; details: for % inhibition (urease): inhibitor concentration not given
jack bean urease [2] = biological target: T1, jack bean urease; test: Enzyme kinetic studies; type: biochemical; details: for Vmax (app): at an inhibitor concentration of 20 μM; for mode of inhibition: urease, Lineweaver–Burk plots

T1 sequence (P07374 whole entry, looked up): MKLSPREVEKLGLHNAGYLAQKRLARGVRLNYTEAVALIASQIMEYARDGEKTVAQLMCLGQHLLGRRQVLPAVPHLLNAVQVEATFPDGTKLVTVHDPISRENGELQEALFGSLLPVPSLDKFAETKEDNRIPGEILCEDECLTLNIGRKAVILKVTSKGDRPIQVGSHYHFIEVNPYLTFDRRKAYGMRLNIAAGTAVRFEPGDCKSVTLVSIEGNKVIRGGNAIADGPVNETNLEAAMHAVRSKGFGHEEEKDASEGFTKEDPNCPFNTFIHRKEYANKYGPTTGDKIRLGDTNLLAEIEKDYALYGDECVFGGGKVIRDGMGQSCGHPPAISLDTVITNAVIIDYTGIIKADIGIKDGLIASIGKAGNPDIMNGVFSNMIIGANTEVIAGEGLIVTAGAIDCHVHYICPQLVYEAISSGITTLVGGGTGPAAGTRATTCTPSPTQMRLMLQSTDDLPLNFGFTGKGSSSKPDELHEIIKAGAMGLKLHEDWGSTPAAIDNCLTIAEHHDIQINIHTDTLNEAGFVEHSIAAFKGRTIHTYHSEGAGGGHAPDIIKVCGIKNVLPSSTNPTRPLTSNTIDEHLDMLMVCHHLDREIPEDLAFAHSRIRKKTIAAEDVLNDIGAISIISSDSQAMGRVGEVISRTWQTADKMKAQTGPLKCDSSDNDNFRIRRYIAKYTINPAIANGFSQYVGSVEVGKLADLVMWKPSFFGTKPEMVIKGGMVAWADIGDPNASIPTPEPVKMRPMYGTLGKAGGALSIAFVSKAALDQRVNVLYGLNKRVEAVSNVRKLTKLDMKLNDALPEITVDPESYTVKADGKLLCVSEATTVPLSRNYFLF

Compound	IC50 (jack bean urease [1])	% inhibition (urease) (jack bean urease [1]; jack bean urease)	Ki (jack bean urease [2])	Vmax (app) (jack bean urease [2])	mode of inhibition (jack bean urease [2])	IC50 (jack bean urease [1]; read-out: IC50 (μM), mean ± SEM, jack bean urease, mean ± SEM)	Ki (jack bean urease [2]; read-out: Ki (inhibition constant), calculated from secondary Lineweaver–Burk plots)
CC(=O)NS(=O)(=O)c1ccc(NC(=O)Cc2ccccc2Nc2c(Cl)cccc2Cl)cc1 [conjugate 10, N-(4-(N-Acetylsulfamoyl)phenyl)-2-(2-((2,6-dichlorophenyl)amino)phenyl)acetamide]	5.49 ± 0.34 µM	84.5%	2.73 µM	3.46 µM/min	competitively; also recorded: competitive		
Cc1cc(NS(=O)(=O)c2ccc(NC(=O)Cc3ccccc3Nc3c(Cl)cccc3Cl)cc2)no1 [conjugate 9, 2-(2-((2,6-Dichlorophenyl)amino)phenyl)-N-(4-(N-(5-methylisoxazol-3-yl)sulfamoyl)phenyl)acetamide]	33.34 ± 0.21 µM	77.3%					
O=C(Cc1ccccc1Nc1c(Cl)cccc1Cl)Nc1ccc(S(=O)(=O)Nc2nccs2)cc1 [conjugate 6, 2-(2-((2,6-Dichlorophenyl)amino)phenyl)-N-(4-(N-(thiazol-2-yl)sulfamoyl)phenyl)acetamide]	16.2 ± 0.21 µM	71.3%	16.3 µM	0.755 µM/min	mixed		
Cc1noc(NS(=O)(=O)c2ccc(NC(=O)Cc3ccccc3Nc3c(Cl)cccc3Cl)cc2)c1C [conjugate 5, 2-(2-((2,6-Dichlorophenyl)amino)phenyl)-N-(4-(N-(3,4-dimethylisoxazol-5-yl)sulfamoyl)phenyl)acetamide]	23.1 ± 0.49 µM	73.4%					
Cc1cc(NS(=O)(=O)c2ccc(NC(=O)c3ccccc3Nc3cccc(C)c3C)cc2)no1 [conjugate 17, 2-((2,3-Dimethylphenyl)amino)-N-(4-(N-(5-methylisoxazol-3-yl)sulfamoyl)phenyl)benzamide]	8.35 ± 0.26 µM		0.46 µM	8.54 µM/min	competitively; also recorded: competitive		
Cc1cccc(Nc2ccccc2C(=O)Nc2ccc(S(N)(=O)=O)cc2)c1C [conjugate 12, 2-((2,3-Dimethylphenyl)amino)-N-(4-sulfamoylphenyl)benzamide]	18.7 ± 0.21 µM	91.6%	3.06 µM	8.62 µM/min	competitively; also recorded: competitive		
O=C(Cc1ccccc1Nc1c(Cl)cccc1Cl)Nc1ccc(S(=O)(=O)Nc2ncccn2)cc1 [conjugate 7, 2-(2-((2,6-Dichlorophenyl)amino)phenyl)-N-(4-(N-(pyrimidin-2-yl)sulfamoyl)phenyl)acetamid]	30.49 ± 0.28 µM	83.6%					
N=C(N)NS(=O)(=O)c1ccc(NC(=O)Cc2ccccc2Nc2c(Cl)cccc2Cl)cc1 [conjugate 11, N-(4-(N-Carbamimidoylsulfamoyl)phenyl)-2-(2-((2,6-dichlorophenyl)amino)phenyl)acetamide]	4.35 ± 0.23 µM	78.7%	1.09 µM	1.11 µM/min	mixed		
Cc1ccnc(NS(=O)(=O)c2ccc(NC(=O)Cc3ccccc3Nc3c(Cl)cccc3Cl)cc2)n1 [conjugate 8, 2-(2-((2,6-Dichlorophenyl)amino)phenyl)-N-(4-(N-(4-methylpyrimidin-2-yl)sulfamoyl)phenyl)acetamide]	9.5 ± 0.28 µM	85.9%	10.8 µM	2.27 µM/min	mixed		
NC(N)=S [thiourea, reference compound]		92.3%		18.61 µM/min	competitive	22.6 ± 0.23 µM	18.2 µM

Now from value to compound, other results behind:

IC50 (jack bean urease [1])	% inhibition (urease) (jack bean urease [1]; jack bean urease)	Ki (jack bean urease [2])	Vmax (app) (jack bean urease [2])	mode of inhibition (jack bean urease [2])	Compound	IC50 (jack bean urease [1]; read-out: IC50 (μM), mean ± SEM, jack bean urease, mean ± SEM)	Ki (jack bean urease [2]; read-out: Ki (inhibition constant), calculated from secondary Lineweaver–Burk plots)
94.99 ± 0.22 µM	68.3%				Cc1ccnc(NS(=O)(=O)c2ccc(NC(=O)c3ccccc3Nc3cccc(C)c3C)cc2)n1 [conjugate 16, 2-((2,3-Dimethylphenyl)amino)-N-(4-(N-(4-methylpyrimidin-2-yl)sulfamoyl)phenyl)benzamide]		
31.32 ± 0.29 µM	79.2%				Cc1cccc(Nc2ccccc2C(=O)Nc2ccc(S(=O)(=O)NC(=N)N)cc2)c1C [conjugate 19, N-(4-(N-Carbamimidoylsulfamoyl)phenyl)-2-((2,3-dimethylphenyl)amino)benzamide]		
36.08 ± 0.28 µM	64.1%				CC(=O)NS(=O)(=O)c1ccc(NC(=O)c2ccccc2Nc2cccc(C)c2C)cc1 [conjugate 18, N-(4-(N-Acetylsulfamoyl)phenyl)-2-((2,3-dimethylphenyl)amino)benzamide]		
15.9 ± 0.25 µM	94.1%	4.82 µM	3.03 µM/min	mixed	Cc1cccc(Nc2ccccc2C(=O)Nc2ccc(S(=O)(=O)Nc3onc(C)c3C)cc2)c1C [conjugate 13, N-(4-(N-(3,4-Dimethylisoxazol-5-yl)sulfamoyl)phenyl)-2-((2,3-dimethylphenyl)amino)benzamide]		
7.92 ± 0.27 µM	84.9%	1.04 µM	6.36 µM/min	mixed	Cc1cccc(Nc2ccccc2C(=O)Nc2ccc(S(=O)(=O)Nc3ncccn3)cc2)c1C [conjugate 15, 2-((2,3-Dimethylphenyl)amino)-N-(4-(N-(pyrimidin-2-yl)sulfamoyl)phenyl)benzamide]		
14.8 ± 0.27 µM	82.9%	1.65 µM	2.28 µM/min	mixed	Cc1cccc(Nc2ccccc2C(=O)Nc2ccc(S(=O)(=O)Nc3nccs3)cc2)c1C [conjugate 14, 2-((2,3-Dimethylphenyl)amino)-N-(4-(N-(thiazol-2-yl)sulfamoyl)phenyl)benzamide]		
